Measured values reported in ChEMBL document CHEMBL5120835, “Structure-activity relationships of 1,4-bis(arylsulfonamido)-benzene or naphthalene-N,N'-diacetic acids with varying C2-substituents as inhibitors of Keap1-Nrf2 protein-protein interaction” (Eur J Med Chem, 2022).
Activity calls are given as the source filed them. The calls are words filed in the database; no cut-off is given here.

Key:
Keap1/Nrf2 [1] = target: T1, Keap1/Nrf2 (Homo sapiens, UniProt Q14145); assay: Inhibition of recombinant human Keap1 Kelch domain (321 to 609 residues) expressed in Escherichia coli BL21 (DE3)pLysS cells/Nrf2 (unknown origin) protein-protein interaction using FITC-LDEETGEFL-NH2 as fluorescent substrate preincubated with compound for 30 mins followed by substrate addition and measured after 1 hr by fluorescence polarization assay relative to control
T1 sequence (Q16236 whole entry, the tested form may be a part): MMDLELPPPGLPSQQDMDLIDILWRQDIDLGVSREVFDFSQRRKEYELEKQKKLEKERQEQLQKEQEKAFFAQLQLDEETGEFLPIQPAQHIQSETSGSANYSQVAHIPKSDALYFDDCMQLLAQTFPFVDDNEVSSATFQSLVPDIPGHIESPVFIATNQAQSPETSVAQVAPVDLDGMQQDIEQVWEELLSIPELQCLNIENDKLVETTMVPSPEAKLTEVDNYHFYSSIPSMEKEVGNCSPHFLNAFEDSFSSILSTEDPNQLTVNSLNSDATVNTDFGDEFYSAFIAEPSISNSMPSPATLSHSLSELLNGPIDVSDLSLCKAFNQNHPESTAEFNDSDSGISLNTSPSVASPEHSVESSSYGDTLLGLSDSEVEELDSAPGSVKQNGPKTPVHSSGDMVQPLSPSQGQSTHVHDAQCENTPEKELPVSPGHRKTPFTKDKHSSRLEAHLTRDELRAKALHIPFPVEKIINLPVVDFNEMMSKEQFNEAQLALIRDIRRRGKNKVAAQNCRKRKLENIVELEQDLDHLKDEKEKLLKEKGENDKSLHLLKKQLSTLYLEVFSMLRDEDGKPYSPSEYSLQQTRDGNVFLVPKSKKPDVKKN
T1 sequence (Q14145 whole entry, the tested form may be a part): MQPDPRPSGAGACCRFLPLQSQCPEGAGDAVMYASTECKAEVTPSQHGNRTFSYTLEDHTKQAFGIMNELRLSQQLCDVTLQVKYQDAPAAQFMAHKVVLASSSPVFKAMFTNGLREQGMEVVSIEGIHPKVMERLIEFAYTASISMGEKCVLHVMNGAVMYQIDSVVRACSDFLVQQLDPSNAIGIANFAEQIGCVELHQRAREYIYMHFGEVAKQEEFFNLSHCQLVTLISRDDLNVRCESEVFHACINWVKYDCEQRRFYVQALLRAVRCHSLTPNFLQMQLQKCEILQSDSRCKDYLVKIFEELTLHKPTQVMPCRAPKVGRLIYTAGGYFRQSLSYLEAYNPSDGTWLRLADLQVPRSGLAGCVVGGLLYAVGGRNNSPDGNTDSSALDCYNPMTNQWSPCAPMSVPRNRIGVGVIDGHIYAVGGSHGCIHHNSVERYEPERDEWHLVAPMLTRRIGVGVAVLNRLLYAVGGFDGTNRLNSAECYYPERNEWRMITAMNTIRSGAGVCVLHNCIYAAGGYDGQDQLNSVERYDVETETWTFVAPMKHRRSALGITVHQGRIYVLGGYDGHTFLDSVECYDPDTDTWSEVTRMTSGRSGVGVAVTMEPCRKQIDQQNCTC

[2] = Lipophilicity, logD of the compound at pH 7.4; type: physicochemical; conditions: buffer
[3] = Lipophilicity, logD of the compound at pH 6.5; type: physicochemical; conditions: buffer
NCM460D [4] = assay: Upregulation of HMOX1 mRNA expression in human NCM460D cells at 1 to 100 uM measured after 24 hrs by qRT-PCR analysis; type: functional, cell-based; conditions: dose 1-100 µM
Keap1/Nrf2 [5] = target: T1, Keap1/Nrf2; assay: Inhibition of His-tagged Keap1 kelch domain/Nrf2 (unknown origin) protein-protein interaction using FITC-LDEETGEFL-NH2 peptide as substrate preincubated for 30 mins followed by substrate addition and measured after 1 hr by TR-FRET assay
NCM460D [6] = assay: Upregulation of GSTM3 mRNA expression in human NCM460D cells at 1 to 100 uM measured after 24 hrs by qRT-PCR analysis; type: functional, cell-based; conditions: dose 1-100 µM
[7] = Upregulation of NQO1 mRNA expression in human NCM460D cells assessed as fold change in gene expression at 100 uM measured after 24 hrs by qRT-PCR analysis relative to control; type: functional
NCM460D [8] = assay: Upregulation of NQO1 mRNA expression in human NCM460D cells at 1 to 100 uM measured after 24 hrs by qRT-PCR analysis; type: functional, cell-based; conditions: dose 1-100 µM

SMILES: O=C(O)CN(c1ccc(N(CC(=O)O)S(=O)(=O)c2ccc(F)cc2)c(OCc2ccccc2)c1)S(=O)(=O)c1ccc(F)cc1
- IC50 (Keap1/Nrf2 [1]): 2410 nM

SMILES: COc1ccc(S(=O)(=O)N(CC(=O)O)c2ccc(N(CC(=O)O)S(=O)(=O)c3ccc(OC)cc3)c(OCCc3ccccc3)c2)cc1
- IC50 (Keap1/Nrf2 [1]): 1020 nM

SMILES: Cc1ccc(S(=O)(=O)N(c2ccc(N([C@@H](C)C(=O)O)S(=O)(=O)c3ccc(C)cc3)c(OCc3ccc(F)cc3)c2)[C@@H](C)C(=O)O)cc1
- IC50 (Keap1/Nrf2 [1]): 1270 nM

SMILES: Cc1ccc(S(=O)(=O)N(CC(=O)O)c2ccc(N(CC(=O)O)S(=O)(=O)c3ccc(C)cc3)c(OCc3ccc(-c4ccccc4)cc3)c2)cc1
- IC50 (Keap1/Nrf2 [1]): 440 nM

SMILES: Cc1cc(C)c(S(=O)(=O)N(CC(=O)O)c2ccc(N(CC(=O)O)S(=O)(=O)c3c(C)cc(C)cc3C)c(OCc3ccc(F)cc3)c2)c(C)c1
- IC50 (Keap1/Nrf2 [1]): 3730 nM

SMILES: O=C(O)CN(c1ccc(N(CC(=O)O)S(=O)(=O)c2ccc(-c3ccccc3)cc2)c(OCc2ccccc2)c1)S(=O)(=O)c1ccc(-c2ccccc2)cc1
- IC50 (Keap1/Nrf2 [1]): 750 nM

SMILES: COc1ccc(COc2cc(N(CC(=O)O)S(=O)(=O)c3ccc(OC)cc3)ccc2N(CC(=O)O)S(=O)(=O)c2ccc(OC)cc2)cc1
- IC50 (Keap1/Nrf2 [1]): 770 nM

SMILES: Cc1ccc(S(=O)(=O)N(CC(=O)O)c2ccc(N(CC(=O)O)S(=O)(=O)c3ccc(C)cc3)c(OCc3ccc4ccccc4c3)c2)cc1
- IC50 (Keap1/Nrf2 [1]): 380 nM

SMILES: Cc1ccc(S(=O)(=O)N(CC(=O)O)c2ccc(N(CC(=O)O)S(=O)(=O)c3ccc(C)cc3)c(OCc3ccc(F)cc3)c2)cc1
- IC50 (Keap1/Nrf2 [1]): 450 nM

SMILES: COc1ccc(S(=O)(=O)N(CC(=O)O)c2ccc(N(CC(=O)O)S(=O)(=O)c3ccc(OC)cc3)c(Oc3ccc4ccccc4c3)c2)cc1
- IC50 (Keap1/Nrf2 [1]): 890 nM

SMILES: COc1ccc(S(=O)(=O)N(CC(=O)O)c2ccc(N(CC(=O)O)S(=O)(=O)c3ccc(OC)cc3)c(OCc3ccc4ccccc4c3)c2)cc1
- IC50 (Keap1/Nrf2 [1]): 480 nM

SMILES: COc1ccc(S(=O)(=O)N(CC(=O)O)c2ccc(N(CC(=O)O)S(=O)(=O)c3ccc(OC)cc3)c3ccccc23)cc1
- logD [2]: -2.93
- logD [3]: -1.38

SMILES: COc1ccc(S(=O)(=O)N(CC(=O)O)c2ccc(N(CC(=O)O)S(=O)(=O)c3ccc(OC)cc3)c(N(C)Cc3ccccc3)c2)cc1
- IC50 (Keap1/Nrf2 [1]): 6170 nM

SMILES: COc1ccc(S(=O)(=O)N(CC(=O)O)c2ccc(N(CC(=O)O)S(=O)(=O)c3ccc(OC)cc3)c(OCc3cccnc3)c2)cc1
- IC50 (Keap1/Nrf2 [1]): 760 nM

SMILES: Cc1cccc(S(=O)(=O)N(CC(=O)O)c2ccc(N(CC(=O)O)S(=O)(=O)c3cccc(C)c3)c(OCc3ccccc3)c2)c1
- IC50 (Keap1/Nrf2 [1]): 1000 nM

SMILES: COc1ccc(S(=O)(=O)N(CC(=O)O)c2ccc(N(CC(=O)O)S(=O)(=O)c3ccc(OC)cc3)c(-c3ccccc3)c2)cc1
- IC50 (Keap1/Nrf2 [1]): 3470 nM

SMILES: COc1ccc(S(=O)(=O)N(CC(=O)O)c2ccc(N(CC(=O)O)S(=O)(=O)c3ccc(OC)cc3)c(OCc3cccc4ccccc34)c2)cc1
- IC50 (Keap1/Nrf2 [1]): 790 nM

SMILES: Cc1ccc(S(=O)(=O)N(Cc2nnn[nH]2)c2ccc(N(Cc3nnn[nH]3)S(=O)(=O)c3ccc(C)cc3)c(OCc3ccc(F)cc3)c2)cc1
- IC50 (Keap1/Nrf2 [1]): 3920 nM

SMILES: COc1ccc(S(=O)(=O)N(CC(=O)O)c2ccc(N(CC(=O)O)S(=O)(=O)c3ccc(OC)cc3)c(OCc3ccc(-c4ccccc4)cc3)c2)cc1
- IC50 (Keap1/Nrf2 [1]): 390 nM

SMILES: COc1ccc(S(=O)(=O)N(CC(=O)O)c2ccc(N(CC(=O)O)S(=O)(=O)c3ccc(OC)cc3)c(OCc3ccc(F)cc3)c2)cc1
- IC50 (Keap1/Nrf2 [1]): 910 nM

SMILES: O=C(O)CN(c1ccc(N(CC(=O)O)S(=O)(=O)c2ccc(Br)cc2)c(OCc2ccccc2)c1)S(=O)(=O)c1ccc(Br)cc1
- IC50 (Keap1/Nrf2 [1]): 590 nM

SMILES: Cc1ccc(S(=O)(=O)N(CC(=O)O)c2cc(OCc3ccc(F)cc3)c(N(CC(=O)O)S(=O)(=O)c3ccc(C)cc3)c3ccccc23)cc1
- Activity (NCM460D [4]): Active
- IC50 (Keap1/Nrf2 [1]): 65 nM
- IC50 (Keap1/Nrf2 [5]): 14.2 nM
- Activity (NCM460D [6]): Active
- fold change (FC) [7]: 15
- logD ([2]; read-out: logD): 0.33
- logD [3]: 1.94
- Activity (NCM460D [8]): Active

SMILES: O=C(O)CN(c1ccc(N(CC(=O)O)S(=O)(=O)c2ccc(C(F)(F)F)cc2)c(OCc2ccccc2)c1)S(=O)(=O)c1ccc(C(F)(F)F)cc1
- IC50 (Keap1/Nrf2 [1]): 1760 nM

SMILES: COc1ccc(S(=O)(=O)N(CC(=O)O)c2ccc(N(CC(=O)O)S(=O)(=O)c3ccc(OC)cc3)c(OCCCc3ccccc3)c2)cc1
- IC50 (Keap1/Nrf2 [1]): 950 nM

SMILES: COc1ccc(S(=O)(=O)N(CC(=O)O)c2ccc(N(CC(=O)O)S(=O)(=O)c3ccc(OC)cc3)c(COc3ccccc3)c2)cc1
- IC50 (Keap1/Nrf2 [1]): 2620 nM

SMILES: COc1ccc(S(=O)(=O)N(CC(=O)O)c2ccc(N(CC(=O)O)S(=O)(=O)c3ccc(OC)cc3)c(OCc3ccc(Oc4ccccc4)cc3)c2)cc1
- IC50 (Keap1/Nrf2 [1]): 830 nM

SMILES: COc1ccc(S(=O)(=O)N(CC(=O)O)c2ccc(N(CC(=O)O)S(=O)(=O)c3ccc(OC)cc3)c(OCc3ccc(C)cc3)c2)cc1
- IC50 (Keap1/Nrf2 [1]): 620 nM

SMILES: Cc1ccc(S(=O)(=O)N(CC(=O)O)c2ccc(N(CC(=O)O)S(=O)(=O)c3ccc(C)cc3)c(OCc3ccccc3)c2)cc1
- IC50 (Keap1/Nrf2 [1]): 450 nM

SMILES: COc1ccc(S(=O)(=O)N(CC(=O)O)c2ccc(N(CC(=O)O)S(=O)(=O)c3ccc(OC)cc3)c(Oc3ccc(-c4ccccc4)cc3)c2)cc1
- IC50 (Keap1/Nrf2 [1]): 1190 nM
